Measurements reported in ChEMBL document CHEMBL3507680, “University of Dundee, Gates Library screen for HepG2 cell viability”.

Assay: Human HepG2 cell viability assay in 384 well format
Assay type: toxicity, cell-based
Design: dose 125 nL, time 70.5 hour; concentration not given beside the values
Conditions: HepG2 cells, read-out: Inhibition

Row | Structure (SMILES) | cytotoxicity at 70.5 h
1 | COc1ccc(N2CCN(C[C@@H](C)CO)CC2=O)cc1 | -4.04%
2 | Cc1ccc(NC(=O)[C@H]2C[C@H](C(=O)O)CN(CC3CC3)C2)cn1 | -21.8%
3 | CCNc1ncc(C(=O)NCc2csc(-c3ncccn3)n2)cn1 | 3.46%
4 | COc1ccc(C(=O)N2C[C@H]3CC[C@@H]2CN(C)C3)cc1Cl | 47.4%
5 | CN(C)c1nc2c(c(N(C)C)n1)CCN(C(=O)CN1CCC(O)CC1)C2 | -7.75%
6 | Cc1nn(CCO)cc1CN1CCCC1c1nc2c(C)cccc2[nH]1 (stereo not given) | -2.76%
7 | O=C(c1ccc(-c2cc[nH]n2)cc1)N1CC[C@H](CO)[C@H](O)C1 | 0.543%
8 | COc1nc(C)c(C(=O)N2CCc3[nH]nc(Cc4ccccc4)c3C2)s1 | -1.57%
9 | COCCCN1CC2(CCC1=O)CCN(Cc1cc(C)no1)CC2 | 12.2%
10 | Cc1cccc(CN2C[C@@H]3CC[C@H](C2)N(Cc2c(C)noc2C)C3=O)n1 | -3.2%
11 | CN(C)CCNc1ccc(-c2nc(COc3ccccc3)no2)cn1 | 3.62%
12 | Cn1c(CO)nnc1CC1CCN(Cc2ccc(C#N)cc2)CC1 | -1.35%
13 | CC1(C)CNC(=O)c2nc(C3CCCN(C(=O)C4CC4)C3)[nH]c2C1 (stereo not given) | -7.49%
14 | Cc1ccc(C(C(=O)N(C)CCc2cn[nH]c2)N(C)C)cc1 (stereo not given) | -8.45%
15 | CCc1nccn1CCCNC(=O)CN1CCN(c2ncccn2)CC1 | -7.13%
16 | COC1CCCOC12CCN(C(=O)NCCc1cccs1)CC2 (stereo not given) | -0.941%
17 | CCC(O)Cn1cc(C2=CCN(Cc3ccc(OC)cc3)CC2)cn1 (stereo not given) | -11.9%
18 | CCCc1cc(C(=O)NCCCn2nnc3ccccc32)no1 | -6.64%
19 | CCCc1nc(CN(CC)C(=O)c2ccc3ncsc3c2)no1 | -0.393%
20 | CN1CC2(CCN(C(=O)c3ccc4c(=O)n(C)cnc4c3)CC2)CC1=O | -6.3%
21 | O=C(CCCc1cn[nH]c1)N1C[C@@H](CN2CCCCCC2)[C@@H](CO)C1 | -6.07%
22 | COc1cc(OC)nc(N2CCC3(CC2)OCCCC3O)n1 (stereo not given) | -5.5%
23 | Cc1cnc(C(=O)N(C)Cc2nc(-c3ccccn3)no2)cn1 | 1.35%
24 | COCc1ncc(-c2nccn2CCS(C)(=O)=O)cn1 | 27.5%
25 | CN(C)C(=O)c1ccc2c(c1)N(C)C(CC(=O)NC(CO)CO)CO2 (stereo not given) | -7.74%
26 | Cc1cc2nc(C(C)C)cc(N(C)CC3CCN(C(C)C)C3)n2n1 (stereo not given) | 28%
27 | CCC(=O)Nc1cccc(OCC(=O)N[C@@H]2C[C@H]3CC[C@@H]2C3)c1 | -22.4%
28 | CC(C)Cc1cc(CNC(=O)c2cccc3c2NCCC3)no1 | -8.61%

Row | Structure (SMILES) | cytotoxicity at 70.5 h
29 | CC(C)C1CN(C(=O)c2cc(=O)[nH]c(=O)[nH]2)CCC(=O)N1CC1CC1 (stereo not given) | -2.3%
30 | CCCn1ccnc1-c1nccn1CCn1cnnc1 | -6.38%
31 | Cc1nc2c(c(NC(C)c3nnn[nH]3)n1)Cc1ccccc1OC2 (stereo not given) | -6.63%
32 | COCCCC1CCCCN1Cc1cnn(C)c1C1CC1 (stereo not given) | -2.6%
33 | O=C(Cc1ccc(CO)cc1)N1CCN(CC2CC2)[C@@H]2CS(=O)(=O)C[C@@H]21 | 2.89%
34 | CC(C)(C)N1CC(C(=O)NCc2noc(Cc3ccccc3)n2)CC1=O (stereo not given) | 21.2%
35 | CN1CCCC(CCC(=O)NCCCn2ncc3ccccc32)C1 (stereo not given) | 25.3%
36 | CCN(Cc1noc(C)n1)C(=O)C(c1ccccc1C)N(C)C (stereo not given) | -6.06%
37 | COC(=O)[C@]12CNC[C@H]1CN(Cc1nc(C)c[nH]1)C2 | 8.04%
38 | COc1cc(C(=O)N2CC(Oc3ccccc3Cl)C2)ccn1 | -3.47%
39 | O=C1CC[C@H]2CN(Cc3ncc[nH]3)CC[C@H]2N1CC1CCNCC1 | -1.94%
40 | CSc1ccc(CN(CCO)C(=O)CCNC(C)=O)cc1 | -14.7%
41 | Cc1nnc(N2CC[C@@]3(O)CCNC[C@H]3C2)c2ccccc12 | -12.3%
42 | Cc1nc2c(c(N(C)Cc3ccccc3-n3cccn3)n1)CCNCC2 | 26.5%
43 | CCn1cc(CN2CCCCC2CCn2ccnc2C)cc1C#N (stereo not given) | -6.87%
44 | CCC(C(=O)N(C)Cc1cc(C2CC2)[nH]n1)n1cccn1 (stereo not given) | -5.95%
45 | COCCN(Cc1c(C)nn(C)c1C)C(=O)C1COc2ccccc2C1 (stereo not given) | -1.84%
46 | Cn1ncc2c(N3CC(N4CCCCC4)C3)nc(-c3ccncc3)nc21 | -12.9%
47 | CC(=O)CCC(=O)N1CCC2(CC1)N=C(CCC(C)C)NC2=O | -0.28%
48 | CN(CCc1nc2cc(Cl)ccc2[nH]1)C(=O)c1ncn[nH]1 | -9.76%
49 | CN(Cc1nccs1)C1CCN(c2cccc(-c3cscn3)c2)CC1 | 10.5%
50 | CC(C)c1cc(NCC2(CO)CCCC2)ncn1 | -10.6%
51 | Cc1ncsc1-c1ccn(CC(=O)Nc2cnn(C)n2)n1 | 45.6%
52 | CNC(=O)CCC(=O)N1CCOC(c2ccc3cc(OC)ccc3c2)C1 (stereo not given) | -3.11%
53 | N[C@@H]1CC[C@H](C(=O)NCCc2nc(-c3ccccc3)cs2)C1 | -1.72%
54 | Cc1nn(-c2ccccc2)c(C)c1-c1ccnc(N2CCCNCC2)n1 | -2.54%
55 | C1CC(CN2C[C@H]3CC[C@@H]2CN(Cc2nnc(C4CC4)o2)C3)C1 | -16.7%
